Literature values in US12691066B2, “Dual-targeting biomimetic liposome with elemene (ELE) and cabazitaxel (CTX), and preparation method and use thereof” (HANGZHOU NORMAL UNIVERSITY, priority 2021, dated 2026).

solubility in ethanol: soluble
solubility in water: almost insoluble
Compound: CO[C@H]1C(=O)[C@]2(C)[C@@H](OC)C[C@H]3OC[C@@]3(OC(C)=O)[C@H]2[C@H](OC(=O)c2ccccc2)[C@]2(O)C[C@H](OC(=O)[C@H](O)[C@@H](NC(=O)OC(C)(C)C)c3ccccc3)C(C)=C1C2(C)C [Cabazitaxel]
